Results published in patent US12479840B2, “HMG-CoA reductase degradation inducing compound” (Uppthera, priority 2020, dated 2025).

The compounds below were run against T1, HMG-CoA reductase (Homo sapiens, UniProt P04035) (assay: HMG-CoA reductase (HMGCR) degradation in HepG2 cells by western blotting). Details: treated for 18 hours, ratio of HMG-CoA reductase to GAPDH, read-out: DC50.
T1 construct: endogenous in cells; host or cells: HepG2 (Korea Cell Line Bank)
T1 sequence (P04035 1-888): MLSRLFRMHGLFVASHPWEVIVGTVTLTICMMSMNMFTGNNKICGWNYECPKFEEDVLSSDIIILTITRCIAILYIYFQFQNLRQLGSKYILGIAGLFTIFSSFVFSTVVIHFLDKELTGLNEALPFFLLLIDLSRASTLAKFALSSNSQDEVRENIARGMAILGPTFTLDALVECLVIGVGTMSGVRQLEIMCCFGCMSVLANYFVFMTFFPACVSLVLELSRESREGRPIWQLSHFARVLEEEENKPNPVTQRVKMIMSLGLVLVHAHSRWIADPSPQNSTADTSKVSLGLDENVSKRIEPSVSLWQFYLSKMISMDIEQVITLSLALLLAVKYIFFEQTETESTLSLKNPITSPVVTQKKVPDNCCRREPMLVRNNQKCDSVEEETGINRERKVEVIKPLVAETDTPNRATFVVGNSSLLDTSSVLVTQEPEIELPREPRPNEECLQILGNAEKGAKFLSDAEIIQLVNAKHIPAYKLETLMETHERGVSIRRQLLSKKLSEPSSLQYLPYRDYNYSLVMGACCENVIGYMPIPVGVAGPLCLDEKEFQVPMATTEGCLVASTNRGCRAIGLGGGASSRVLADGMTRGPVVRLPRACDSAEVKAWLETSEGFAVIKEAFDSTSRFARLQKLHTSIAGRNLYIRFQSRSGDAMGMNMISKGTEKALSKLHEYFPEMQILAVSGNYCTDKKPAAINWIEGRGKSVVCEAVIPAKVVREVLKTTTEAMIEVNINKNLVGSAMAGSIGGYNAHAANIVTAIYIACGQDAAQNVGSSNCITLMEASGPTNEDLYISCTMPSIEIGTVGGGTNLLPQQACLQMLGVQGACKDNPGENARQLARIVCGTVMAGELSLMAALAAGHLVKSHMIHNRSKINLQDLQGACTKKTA
Type: cell-based
In short: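 HepG2 cells (passage P105–P110) treated 18 hours with compounds in 10-point three-fold dilutions from 3 μM. RIPA lysates (15 μg protein, BCA-quantified) run on SDS-PAGE and immunoblotted for HMGCR (1:500) with GAPDH (1:20000) as loading control, primary antibodies 16 hours at 4° C.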

Compared with `C[C@H]1C=C2C=C[C@H](C)[C@H](CC[C@@H]3C[C@@H](O[Si](C)(C)C(C)(C)C)CC(=O)O3)[C@H]2[C@@H](OC(=O)NCCOCCOCCNC(=O)COc2cccc3c2C(=O)N(C2CCC(=O)NC2=O)C3=O)C1` (stereo partly drawn) [Compound 138, (1S,3R,7S,8S,8aR)-8-(2-((2R,4R)-4-((tert-butyldimethylsilyl)oxy)-6-oxotetrahydro-2H-pyran-2-yl)ethyl)-3,7-dimethyl-1,2,3,7,8,8a-hexahydronaphthalen-1-yl (2-(2-(2-(2-((2-(2,6-dioxopiperidin-3-yl)-1,3-dioxoisoindolin-4-yl)oxy)acetamido)ethoxy)ethoxy)ethyl)carbamate], `C[C@H]1C=C2C=C[C@H](C)[C@H](CC[C@@H]3C[C@@H](O)CC(=O)O3)[C@H]2[C@@H](OC(=O)NCCOCCOCCNC(=O)COc2cccc3c2C(=O)N(C2CCC(=O)NC2=O)C3=O)C1` (stereo partly drawn) [Compound 139, (1S,3R,7S,8S,8aR)-8-(2-((2R,4R)-4-hydroxy-6-oxotetrahydro-2H-pyran-2-yl)ethyl)-3,7-dimethyl-1,2,3,7,8,8a-hexahydronaphthalen-1-yl (2-(2-(2-(2-((2-(2,6-dioxopiperidin-3-yl)-1,3-dioxoisoindolin-4-yl)oxy)acetamido)ethoxy)ethoxy)ethyl)carbamate] is higher in DC50: < 0.05 µM for the first, 0.05 to 0.5 µM for the second.

`CN[C@@H](C)C(=O)N[C@H](C(=O)N1CCC[C@H]1c1nc(C(=O)c2cccc(OCCOCCOCCOCCOCCNC(=O)O[C@H]3C[C@@H](C)C=C4C=C[C@H](C)[C@H](CC[C@@H]5C[C@@H](O)CC(=O)O5)[C@H]43)c2)cs1)C1CCCCC1` [Compound 33, (1S,3R,7S,8S,8aR)-8-(2-((2R,4R)-4-hydroxy-6-oxotetrahydro-2H-pyran-2-yl)ethyl)-3,7-dimethyl-1,2,3,7,8,8a-hexahydronaphthalen-1-yl (14-(3-(2-((S)-1-((S)-2-cyclohexyl-2-((S)-2-(methylamino)propanamido)acetyl)pyrrolidin-2-yl)thiazole-4-carbonyl)phenoxy)-3,6,9,12-tetraoxatetradecyl)carbamate] and `CN[C@@H](C)C(=O)N[C@H](C(=O)N1CCC[C@H]1c1nc(C(=O)c2cccc(OCCOCCOCCNC(=O)O[C@H]3C[C@@H](C)C=C4C=C[C@H](C)[C@H](CC[C@@H]5C[C@@H](O[Si](C)(C)C(C)(C)C)CC(=O)O5)[C@H]43)c2)cs1)C1CCCCC1` [Compound 36, (1S,3R,7S,8S,8aR)-8-(2-((2R,4R)-4-((tert-butyldimethylsilyl)oxy)-6-oxotetrahydro-2H-pyran-2-yl)ethyl)-3,7-dimethyl-1,2,3,7,8,8a-hexahydronaphthalen-1-yl (2-(2-(2-(3-(2-((S)-1-((S)-2-cyclohexyl-2-((S)-2-(methylamino)propanamido)acetyl)pyrrolidin-2-yl)thiazole-4-carbonyl)phenoxy)ethoxy)ethoxy)ethyl)carbamate] cannot be ordered by DC50: < 0.05 µM for the first, < 0.05 µM for the second.

`C[C@H]1C=C2C=C[C@H](C)[C@H](CC[C@@H]3C[C@@H](O)CC(=O)O3)[C@H]2[C@@H](OC(=O)NCCOCCCOCCNc2cccc3c2C(=O)N(C2CCC(=O)NC2=O)C3=O)C1` (stereo partly drawn) [Compound 91, (1S,3R,7S,8S,8aR)-8-(2-((2R,4R)-4-hydroxy-6-oxotetrahydro-2H-pyran-2-yl)ethyl)-3,7-dimethyl-1,2,3,7,8,8a-hexahydronaphthalen-1-yl (2-(3-(2-((2-(2,6-dioxopiperidin-3-yl)-1,3-dioxoisoindolin-4-yl)amino)ethoxy)propoxy)ethyl)carbamate] and `C[C@H]1C=C2C=C[C@H](C)[C@H](CC[C@@H]3C[C@@H](O)CC(=O)O3)[C@H]2[C@@H](OC(=O)N(C)CCOCCOCCNc2cccc3c2C(=O)N(C2CCC(=O)NC2=O)C3=O)C1` (stereo partly drawn) [Compound 83, (1S,3R,7S,8S,8aR)-8-(2-((2R,4R)-4-hydroxy-6-oxotetrahydro-2H-pyran-2-yl)ethyl)-3,7-dimethyl-1,2,3,7,8,8a-hexahydronaphthalen-1-yl (2-(2-(2-((2-(2,6-dioxopiperidin-3-yl)-1,3-dioxoisoindolin-4-yl)amino)ethoxy)ethoxy)ethyl)(methyl)carbamate] cannot be ordered by DC50: < 0.05 µM for the first, < 0.05 µM for the second.

Going from `C[C@H]1C=C2C=C[C@H](C)[C@H](CC[C@@H]3C[C@@H](O)CC(=O)O3)[C@H]2[C@@H](OC(=O)C(C)(C)CCC(=O)NCCOCCOCCOCC(=O)NCC(C)(C)C)C1` [Compound 7, (1S,3R,7S,8S,8aR)-8-(2-((2R,4R)-4-hydroxy-6-oxotetrahydro-2H-pyran-2-yl)ethyl)-3,7-dimethyl-1,2,3,7,8,8a-hexahydronaphthalen-1-yl 2,2,20,20-tetramethyl-5,17-dioxo-7,10,13-trioxa-4,16-diazahenicosan-21-oate] to `Cc1ncsc1-c1ccc(CNC(=O)[C@@H]2C[C@@H](O)CN2C(=O)[C@@H](NC(=O)C2(F)CC2)C(C)(C)C)c(OCCOCCNC(=O)O[C@H]2C[C@@H](C)C=C3C=C[C@H](C)[C@H](CC[C@@H]4C[C@@H](O)CC(=O)O4)[C@H]32)c1` [Compound 23, (1S,3R,7S,8S,8aR)-8-(2-((2R,4R)-4-hydroxy-6-oxotetrahydro-2H-pyran-2-yl)ethyl)-3,7-dimethyl-1,2,3,7,8,8a-hexahydronaphthalen-1-yl (2-(2-(2-(((2S,4R)-1-((S)-2-(1-fluorocyclopropane-1-carboxamido)-3,3-dimethylbutanoyl)-4-hydroxypyrrolidine-2-carboxamido)methyl)-5-(4-methylthiazol-5-yl)phenoxy)ethoxy)ethyl)carbamate], the DC50 falls from > 0.5 µM to < 0.05 µM.

`C[C@H]1C=C2C=C[C@H](C)[C@H](CC[C@@H]3C[C@@H](O[Si](C)(C)C(C)(C)C)CC(=O)O3)[C@H]2[C@@H](OC(=O)NCCCCCCCCNC(=O)COc2cccc3c2C(=O)N(C2CCC(=O)NC2=O)C3=O)C1` (stereo partly drawn) [Compound 96, (1S,3R,7S,8S,8aR)-8-(2-((2R,4R)-4-((tert-butyldimethylsilyl)oxy)-6-oxotetrahydro-2H-pyran-2-yl)ethyl)-3,7-dimethyl-1,2,3,7,8,8a-hexahydronaphthalen-1-yl (8-(2-((2-(2,6-dioxopiperidin-3-yl)-1,3-dioxoisoindolin-4-yl)oxy)acetamido)octyl)carbamate] and `C[C@H]1C=C2C=C[C@H](C)[C@H](CC[C@@H]3C[C@@H](O[Si](C)(C)C(C)(C)C)CC(=O)O3)[C@H]2[C@@H](OC(=O)NCCCOC2CCN(C(=O)COc3cccc4c3C(=O)N(C3CCC(=O)NC3=O)C4=O)CC2)C1` (stereo partly drawn) [Compound 134, (1S,3R,7S,8S,8aR)-8-(2-((2R,4R)-4-((tert-butyldimethylsilyl)oxy)-6-oxotetrahydro-2H-pyran-2-yl)ethyl)-3,7-dimethyl-1,2,3,7,8,8a-hexahydronaphthalen-1-yl (3-((1-(2-((2-(2,6-dioxopiperidin-3-yl)-1,3-dioxoisoindolin-4-yl)oxy)acetyl)piperidin-4-yl)oxy)propyl)carbamate] fall in the same range of DC50: 0.05 to 0.5 µM for the first, 0.05 to 0.5 µM for the second.

`C[C@H]1C=C2C=C[C@H](C)[C@H](CC[C@@H]3C[C@@H](O)CC(=O)O3)[C@H]2[C@@H](OC(=O)NCc2ccc(OCCNc3cccc4c3C(=O)N(C3CCC(=O)NC3=O)C4=O)cc2)C1` (stereo partly drawn) [Compound 105, (1S,3R,7S,8S,8aR)-8-(2-((2R,4R)-4-hydroxy-6-oxotetrahydro-2H-pyran-2-yl)ethyl)-3,7-dimethyl-1,2,3,7,8,8a-hexahydronaphthalen-1-yl (4-(2-((2-(2,6-dioxopiperidin-3-yl)-1,3-dioxoisoindolin-4-yl)amino)ethoxy)benzyl)carbamate] and `C[C@H]1C=C2C=C[C@H](C)[C@H](CC[C@@H]3C[C@@H](O)CC(=O)O3)[C@H]2[C@@H](OC(=O)NCCCCCCCCNc2cccc3c2C(=O)N(C2CCC(=O)NC2=O)C3=O)C1` (stereo partly drawn) [Compound 61, (1S,3R,7S,8S,8aR)-8-(2-((2R,4R)-4-hydroxy-6-oxotetrahydro-2H-pyran-2-yl)ethyl)-3,7-dimethyl-1,2,3,7,8,8a-hexahydronaphthalen-1-yl (8-((2-(2,6-dioxopiperidin-3-yl)-1,3-dioxoisoindolin-4-yl)amino)octyl)carbamate] cannot be ordered by DC50: < 0.05 µM for the first, < 0.05 µM for the second.

With `C[C@H]1C=C2C=C[C@H](C)[C@H](CC[C@@H]3C[C@@H](O)CC(=O)O3)[C@H]2[C@@H](OC(=O)NCCCCCCCCCCNc2cccc3c2C(=O)N(C2CCC(=O)NC2=O)C3=O)C1` (stereo partly drawn) [Compound 63, (1S,3R,7S,8S,8aR)-8-(2-((2R,4R)-4-hydroxy-6-oxotetrahydro-2H-pyran-2-yl)ethyl)-3,7-dimethyl-1,2,3,7,8,8a-hexahydronaphthalen-1-yl (10-((2-(2,6-dioxopiperidin-3-yl)-1,3-dioxoisoindolin-4-yl)amino)decyl)carbamate] the DC50 was < 0.05 µM.
